Experimental data as given in patent US9255062B2, “Fatty acid derivatives for oral administration endowed with high palatability” (priority 2008, dated 2016).

Assays:
Caco-2 cells = experiment: Ussing chamber, short circuit current in Caco-2 monolayer, baseline conditions; format: cell-based, human; settings: Caco-2 in Ussing chamber; for decrease in short circuit current (ΔIsc), maximum effect: final concentration 10 mM; for decrease in short circuit current (ΔIsc), maximum effect / time of maximum decrease in Isc after addition: luminal (mucosal) side; for effect on tissue conductance: luminal side, measure of tissue integrity
Experimental: The experiments were carried out using a human intestinal cell line called Caco-2, obtained from the American Type Culture Collection (ATCC, Rockville, USA). These cells, 15 days after confluence, form a monolayer of enterocytes with morphological and functional features identical to those of ileal enterocytes at the apex of the villus (Berni Canani R, et al. Gastroenterology 2003; 124:368-76). Cells were grown in a culture medium consisting in Dulbecco's Modified Eagle's Medium (DMEM) containing glucose (4.5 g/L), 10% Fetal Calf Serum (FCS), 1% non-essential amino acids, 1% L-glutamine, 1% sodium pyruvate, streptomycin ([…]), penicillin ([…]), and were incubated at 37° C. in an atmosphere of 5% CO2 and […]. The culture medium was replaced every day.
For all the experiments were used cells at the 30th-40th pass, 2×10^6 cells per filter, grown on polycarbonate supports (pore size 0.4 μm, diameter 24.5 mm) for 15 days post-confluence. Each support containing the cells was mounted in an Ussing chamber (World Precision Instruments, Sarasota, Fla.) as a cellular monolayer between the luminal and the serosal compartments (Berni Canani R, et al. J. Pediatr. Gastroenterol. Nutr. 28: 315-320, 1999). The Ussing chamber system, allows through the measurement of defined electrical parameters, the study of transepithelial transport of water and electrolytes. These parameters consist in: 1) transepithelial potential difference (PD) and short circuit current (Isc), an expression of the transepithelial passage of ions; 2) resistance (RT) and, ionic conductance (G), a measure of tissue integrity. An absorptive-type stimulus on transepithelial transport induces a decrease in Isc, whereas a secretory-type stimulus induces an increase in Isc. The Isc is expressed in microamperes per square centimeter (μA/cm^2), conductance in millisiemens per square centimeter (mS/cm^2) and the transepithelial potential difference in millivolts (mV). Measurement of these electrical parameters is made possible by the presence of silver electrodes, placed proximally to both sides (serosal and luminal) of the cellular monolayer and connected with an automatic voltage system equipped with software for data acquisition and processing (DVC 1000, World Precision Instruments, Sarasota, Fla., USA). Each compartment contained 10 ml of Ringer's solution with the following composition (in mmol/L): NaCl, 114; KCl, 5; NaH2PO4, 0.3; Na2HPO4, 1.65; CaCl2, 1.25; MgCl2, 1.1; NaHCO3, 25; glucose, 10. The incubation liquid was circulated through the chamber by means of the flow of a gaseous mixture composed of 95% O2 and 5% CO2 and was maintained at a temperature of 37° C. by means of a thermostat (Berni Canani R. et al. J. Pediatr. Gastroenterol. Nutr. 28: 315-320, 1999). The study of changes in electrical parameters reflecting changes in transepithelial transport of water and electrolytes was carried out in baseline conditions and after administration of the compounds on the luminal side of the monolayer of Caco-2 cells.

in vivo = settings: both, Swiss, mouse, po
Swiss mice = settings: oral administration

| Compound | decrease in short circuit current (ΔIsc), maximum effect (Caco-2 cells) [μA/cm^2] | time of maximum decrease in Isc after addition (Caco-2 cells) | effect on tissue conductance (Caco-2 cells) | LD50 (in vivo) [mg/kg] | LD50 expressed as equivalent of butyric acid (Swiss mice) [g] |
| --- | --- | --- | --- | --- | --- |
| CCCC(=O)NC(=O)C(Cc1ccccc1)NC(=O)CCC (stereo not shown) [Compound 2, N-(1-butyroyl-carbamoyl-2-phenyl-ethyl)butyramide] | −0.4±0.1 | 40 to 45 min | without interfering with the stability of tissue conductance | 16300 | 8.8 |
| CCCC1=NC(=O)C(Cc2ccccc2)N1 (stereo not shown) [Compound 3, 5-benzyl-2-propyl-1H-imidazol-4(5H)-one] | −1.1±0.1 | 50 min | absence of any significant changes in tissue conductance | 21600 | 8.8 |
| CCCC(=O)O [butyric acid, reference compound] | – | – | – | 8800 | – |
| CCCC(=O)NC(Cc1ccccc1)C(N)=O (stereo not shown) [Compound 1, N-(1-carbamoyl-2-phenyl-ethyl)butyramide] | −0.9±0.3 | approximately 40 minutes | without interfering with the stability of tissue conductance | 23800 | 8.8 |
| CCCC(=O)[O-].[Na+] [sodium butyrate, reference compound] | −0.8±0.2 | approximately 35 minutes | did not alter tissue conductance | – | – |
